Source: the OPERA property sets (Mansouri et al. 2018)
Converted amounts (≈) assume the structure as drawn.

Conditions: 25 °C

Row | SMILES | solubility
1 | CC(=O)OCC(=O)[C@@]1(O)CCC2C3CCC4=CC(=O)CC[C@]4(C)C3[C@@H](O)C[C@@]21C (some centres not stated) | 0.0349 mM (≈ 14.1 µg/mL)
2 | CCCC[C@@H](O)CC | 34.4 mM (≈ 4000 µg/mL)
3 | ClCCCCl | 24.3 mM (≈ 2750 µg/mL)
4 | CCOC(=O)c1c[nH]c(=S)[nH]c1=O | 7.97 mM (≈ 1600 µg/mL)
5 | C=CCC1(C(C)CCC)C(=O)NC(=S)NC1=O (configuration not stated) | 0.348 mM (≈ 88.5 µg/mL)
6 | Clc1cccc(-c2cccc(Cl)c2Cl)c1Cl | 5.34e-05 mM (≈ 0.0156 µg/mL)
7 | CC(Cl)(Cl)C(=O)O | 3510 mM (≈ 502000 µg/mL)
8 | CCCN(CCC)CCC | 5.22 mM (≈ 748 µg/mL)
9 | Clc1ccc(Cl)c(-c2cc(Cl)c(Cl)cc2Cl)c1 | 4.72e-05 mM (≈ 0.0154 µg/mL)
10 | O=[N+]([O-])c1cc(C2CCCCC2)c(O)c([N+](=O)[O-])c1 | 0.0563 mM (≈ 15 µg/mL)
11 | CN(C)[C@@H]1C(O)=C(C(N)=O)C(=O)[C@@]2(O)C(O)=C3C(=O)c4c(O)cccc4[C@@](C)(O)[C@H]3[C@H](O)[C@@H]12 | 0.68 mM (≈ 313 µg/mL)
12 | CC(C(=O)O)C(=O)O | 5750 mM (≈ 679000 µg/mL)
13 | c1ccc(CCc2ccccc2)cc1 | 0.0236 mM (≈ 4.3 µg/mL)
14 | Fc1ccc(I)cc1 | 0.749 mM (≈ 166 µg/mL)
15 | CCC1(C2=CCCCC2)C(=O)NC(=O)NC1=O | 6.77 mM (≈ 1600 µg/mL)
16 | c1cc2cccc3c4cccc5cccc(c(c1)c23)c54 | 1.59e-06 mM (≈ 0.0004 µg/mL)
17 | CCCC(=O)CCC | 28 mM (≈ 3200 µg/mL)
18 | COC(C)C | 877 mM (≈ 65000 µg/mL)
19 | C#CCCCCCC#C | 1.04 mM (≈ 125 µg/mL)
20 | C(=C\c1ccccc1)/CN1CCN(C(c2ccccc2)c2ccccc2)CC1 | 2.04 mM (≈ 750 µg/mL)
21 | CN(C)C(=O)Nc1ccccc1 | 24.5 mM (≈ 4030 µg/mL)
22 | FC(F)(F)C(F)(F)F | 0.0564 mM (≈ 7.78 µg/mL)
23 | Fc1ccccc1Br | 2.01 mM (≈ 353 µg/mL)
24 | O=c1cc[nH]c(=O)[nH]1 | 32.1 mM (≈ 3600 µg/mL)
25 | O=C(O)c1cc(=O)c(O)c(C(=O)O)o1 | 42 mM (≈ 8400 µg/mL)

Row | SMILES | solubility
26 | CCOP(=O)(OCC)OCC | 2740 mM (≈ 500000 µg/mL)
27 | Cc1cc(C)cc(O)c1 | 39.9 mM (≈ 4880 µg/mL)
28 | Cc1cc2ccccc2cc1C | 0.0127 mM (≈ 1.99 µg/mL)
29 | C=C(C)CCC | 0.927 mM (≈ 78 µg/mL)
30 | Clc1ccc(-c2ccc(Cl)c(Cl)c2)cc1Cl | 1.95e-06 mM (≈ 0.000569 µg/mL)
31 | CCc1cccs1 | 2.6 mM (≈ 292 µg/mL)
32 | Clc1cc(Cl)c2c(c1Cl)Oc1ccccc1O2 | 2.92e-05 mM (≈ 0.00841 µg/mL)
33 | CC(=O)Nc1ccc(OC(C)=O)cc1 | 12.4 mM (≈ 2390 µg/mL)
34 | CCC(C)c1ccc(O)cc1 (configuration not stated) | 6.39 mM (≈ 960 µg/mL)
35 | CCCCCCCC | 0.00578 mM (≈ 0.66 µg/mL)
36 | O=C(O)c1cccc(Cl)c1[N+](=O)[O-] | 2.33 mM (≈ 470 µg/mL)
37 | C1CCCC1 | 2.22 mM (≈ 156 µg/mL)
38 | Cc1cc(-c2ccc(N)c(C)c2)ccc1N | 6.12 mM (≈ 1300 µg/mL)
39 | CC(C)CCC(C)(C)C | 0.00897 mM (≈ 1.15 µg/mL)
40 | O=C(O)COc1ccc(Cl)cc1Cl | 3.06 mM (≈ 677 µg/mL)
41 | CC(C)(OO)c1ccccc1 | 91.3 mM (≈ 13900 µg/mL)
42 | C#CCCCC | 4.73 mM (≈ 388 µg/mL)
43 | O=C(O)c1cc([N+](=O)[O-])cc([N+](=O)[O-])c1 | 6.37 mM (≈ 1350 µg/mL)
44 | CCCCCCCCCc1ccc(O)cc1 | 0.0318 mM (≈ 7 µg/mL)
45 | O=C(O)c1ccccc1 | 24.8 mM (≈ 3030 µg/mL)
46 | Ic1cccc2ccccc12 | 0.0282 mM (≈ 7.16 µg/mL)
47 | CCCC(=O)OC | 147 mM (≈ 15000 µg/mL)
48 | ClC1=C(Cl)[C@]2(Cl)[C@H]3[C@H]([C@@H]4C=C[C@H]3C4)[C@@]1(Cl)C2(Cl)Cl (racemic) | 4.66e-05 mM (≈ 0.017 µg/mL)
49 | Clc1cccc(Cl)c1-c1c(Cl)cccc1Cl | 4.08e-05 mM (≈ 0.0119 µg/mL)
50 | O=C(O)CCI | 372 mM (≈ 74300 µg/mL)

Same assay, conditions: 27 °C

Row | SMILES | solubility
51 | CC(=O)[C@@]1(O)CC[C@H]2[C@@H]3CCC4=CC(=O)CC[C@]4(C)[C@H]3CC[C@@]21C | 0.0196 mM (≈ 6.48 µg/mL)
52 | Cc1cc2c3ccccc3ccc2c2ccccc12 | 0.000268 mM (≈ 0.065 µg/mL)

Same assay, conditions: 30 °C

Row | SMILES | solubility
53 | CCCCCCCCCCC(=O)O | 0.28 mM (≈ 52.2 µg/mL)
54 | COc1c2occc2cc2ccc(=O)oc12 | 0.22 mM (≈ 47.6 µg/mL)
55 | CC1OC(C)OC(C)O1 (configuration not stated) | 847 mM (≈ 112000 µg/mL)
56 | C=CCCCCCCCCC(=O)O | 0.4 mM (≈ 73.7 µg/mL)
57 | CCOC(=O)C1(c2ccccc2)CCN(C)CC1 | 13 mM (≈ 3220 µg/mL)
